Reference: patent publication US10226471B2, “Modified-release dosage forms of 5-HT2C agonists useful for weight management” (Arena Pharmaceuticals, Inc., priority 2010, dated 2019)

Assay: Dynamic moisture-sorption (DMS)
Assay type: physicochemical
Details: for hygroscopicity by DMS: isotherm 25° C.
Procedure: Dynamic moisture-sorption (DMS) studies were conducted using a dynamic moisture-sorption analyzer, VTI Corporation, SGA-100, equipment #0228. Samples were prepared for DMS analysis by placing 5 mg to 20 mg of a sample in a tared sample holder. The sample was placed on the hang-down wire of the VTI balance. A drying step was run, typically at 40° C. and 0.5-1% RH for 1-2 h. The isotherm temperature is 25° C. Defined % RH holds typically ranged from 10% RH to 90% RH or 95% RH, with intervals of 10 to 20% RH. A % weight change smaller than 0.010% over a specified number of minutes (typically 10-20), or up to 2 h, whichever occurs first, is required before continuing to the next % RH hold. The water content of the sample equilibrated as described above was determined at each % RH hold.

[1] = out to and including the 90% RH hold at 25° C.

Row | SMILES | hygroscopicity by DMS | hygroscopicity by DMS (listed as Compound 1 Hydrochloride Salt Hemihydrate, Form III) | water adsorbed in DMS [1] | DMS weight gain at 90% RH [1] | DMS weight gain at 90% RH (out to and including the 90% RH hold at 25° C., Form I)
1 | C[C@H]1CNCCc2ccc(Cl)cc21.C[C@H]1CNCCc2ccc(Cl)cc21.Cl.Cl.O | substantially non-hygroscopic | FIG. 4: non-hygroscopic | less than 0.5 wt % | – | –
2 | C[C@H]1CNCCc2ccc(Cl)cc21.C[C@H]1CNCCc2ccc(Cl)cc21.O=S(=O)(O)c1cccc2c(S(=O)(=O)O)cccc12 [Compound 1 heminapadisilate salt] | non-hygroscopic | – | – | about 0.68% | FIG. 31: ~0.68% weight gain at about 90% RH
